Laboratory results taken from ChEMBL document CHEMBL1201862, “PubChem BioAssay data set” (2004).
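The compound was tested at five concentrations on cells cultured in 96-well plates, with a 48-hour exposure period. Abbreviation: GI50, concentration required for 50% inhibition of growth.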 Activity calls are given as the source filed them. No stated cut-off is given here; in the data, active = GI50 up to about 1.1 µM and inactive = higher.

Legend:
Experiment in all cases: inhibition of tumour cell growth, NCI panel, 48 h
SW-620 = system: SW-620
786-0 = system: 786-0
UACC-62 = system: UACC-62
NCI-H460 = system: NCI-H460
M14 = system: M14
NCI-H226 = system: NCI-H226
ACHN = system: ACHN
CAKI-1 = system: CAKI-1
SK-MEL-28 = system: SK-MEL-28
Malme-3M = system: Malme-3M
SR = system: SR
CCRF-CEM = system: CCRF-CEM
IGROV-1 = system: IGROV-1
SK-MEL-5 = system: SK-MEL-5
M19-MEL = system: M19-MEL
SN12C = system: SN12C
RPMI-8226 = system: RPMI-8226
KM12 = system: KM12
SNB-75 = system: SNB-75
HOP-18 = system: HOP-18
A549 = system: A549
LXFL 529 = system: LXFL 529
OVCAR-8 = system: OVCAR-8
DMS-273 = system: DMS-273
DMS-114 = system: DMS-114
UACC-257 = system: UACC-257
SF-539 = system: SF-539
OVCAR-4 = system: OVCAR-4
HOP-92 = system: HOP-92
NCI-H522 = system: NCI-H522
SF-268 = system: SF-268
SK-OV-3 = system: SK-OV-3
LOX IMVI = system: LOX IMVI
HCT-116 = system: HCT-116
U-251 = system: U-251
NCI-H23 = system: NCI-H23
UO-31 = system: UO-31
OVCAR-5 = system: OVCAR-5
HT-29 = system: HT-29
K562 = system: K562
COLO 205 = system: COLO 205
MOLT-4 = system: MOLT-4
HCT-15 = system: HCT-15
SK-MEL-2 = system: SK-MEL-2
TK-10 = system: TK-10
RXF 393 = system: RXF 393
DLD-1 = system: DLD-1
HOP-62 = system: HOP-62
SF-295 = system: SF-295
HL-60 = system: HL-60
A498 = system: A498
KM-20L2 = system: KM-20L2
HCC 2998 = system: HCC 2998
SNB-19 = system: SNB-19
SNB-78 = system: SNB-78
EKVX = system: EKVX
OVCAR-3 = system: OVCAR-3

For `O=c1cc(-c2ccccc2)[nH]c2cc(F)cc(F)c12`, the GI50 (SW-620) was 14.4 µM (inactive), the GI50 (786-0) was 52.4 µM (inactive) and the GI50 (UACC-62) was 16.1 µM (inactive). For the same compound, the GI50 (NCI-H460) was 28.3 µM (inactive), the GI50 (M14) was 30.3 µM (inactive) and the GI50 (NCI-H226) was 20.9 µM (inactive). For the same compound, the GI50 (ACHN) was 50.9 µM (inactive), the GI50 (CAKI-1) was 21.8 µM (inactive) and the GI50 (SK-MEL-28) was 27.2 µM (inactive). For the same compound, the GI50 (Malme-3M) was 16.7 µM (inactive), the GI50 (SR) was 3.75 µM (inactive) and the GI50 (CCRF-CEM) was 61.7 µM (inactive). The GI50 (IGROV-1) was 37.8 µM (inactive), the GI50 (SK-MEL-5) was 10.1 µM (inactive) and the GI50 (M19-MEL) was 31.6 µM (inactive). For the same compound, the GI50 (SN12C) was 52.5 µM (inactive), the GI50 (RPMI-8226) was 30.1 µM (inactive) and the GI50 (KM12) was 4.56 µM (inactive). For the same compound, the GI50 (SNB-75) was 14.8 µM (inactive), the GI50 (HOP-18) was 43 µM (inactive) and the GI50 (A549) was 20.8 µM (inactive). For the same compound, the GI50 (LXFL 529) was 53.6 µM (inactive), the GI50 (OVCAR-8) was 57.5 µM (inactive) and the GI50 (DMS-273) was 10.3 µM (inactive). The GI50 (DMS-114) was 24.7 µM (inactive), the GI50 (UACC-257) was 40.1 µM (inactive) and the GI50 (SF-539) was 24.4 µM (inactive). For the same compound, the GI50 (OVCAR-4) was > 100 µM (inactive), the GI50 (HOP-92) was 41.6 µM (inactive) and the GI50 (NCI-H522) was 11.9 µM (inactive). For the same compound, the GI50 (SF-268) was > 100 µM (inactive), the GI50 (SK-OV-3) was 19.7 µM (inactive) and the GI50 (LOX IMVI) was 55.8 µM (inactive). The GI50 (HCT-116) was 36.2 µM (inactive), the GI50 (U-251) was 29.1 µM (inactive) and the GI50 (NCI-H23) was 48.6 µM (inactive). The GI50 (UO-31) was 37 µM (inactive), the GI50 (OVCAR-5) was 43.5 µM (inactive) and the GI50 (HT-29) was 36.6 µM (inactive). For the same compound, the GI50 (K562) was 11.9 µM (inactive), the GI50 (COLO 205) was 16.1 µM (inactive) and the GI50 (MOLT-4) was 75.5 µM (inactive). For the same compound, the GI50 (HCT-15) was 6.59 µM, the GI50 (SK-MEL-2) was 18.2 µM (inactive) and the GI50 (TK-10) was 63.7 µM (inactive). For the same compound, the GI50 (RXF 393) was 29.2 µM (inactive), the GI50 (DLD-1) was 28.5 µM (inactive) and the GI50 (HOP-62) was 26.5 µM (inactive). For the same compound, the GI50 (SF-295) was 25.1 µM (inactive) and the GI50 (HL-60) was 21.8 µM (inactive).

In the case of `C=C(C=O)CCCC(C)[C@@H]1CCC23CC12CCC1[C@@]2(C)CCC(OC(C)=O)C(C)(C)C2CC(OC2OC(COC(C)=O)C(O)C(O)C2O)[C@]13C` (stereo partly drawn), the GI50 (SW-620) is reported as 0.798 µM (active), the GI50 (A498) is reported as 6.85 µM (inactive) and the GI50 (786-0) is reported as 6.87 µM (inactive). The GI50 (UACC-62) was 1.08 µM (active), the GI50 (NCI-H460) was 7.69 µM (inactive) and the GI50 (M14) was 1.47 µM (inactive). For the same compound, the GI50 (NCI-H226) was 6.43 µM (inactive), the GI50 (ACHN) was 4.51 µM (inactive) and the GI50 (CAKI-1) was 5.25 µM (inactive). For the same compound, the GI50 (SK-MEL-28) was 0.845 µM (active), the GI50 (Malme-3M) was 2 µM (inactive) and the GI50 (CCRF-CEM) was 1.03 µM (active). The GI50 (IGROV-1) was 2.15 µM (inactive), the GI50 (SK-MEL-5) was 5.58 µM (inactive) and the GI50 (KM-20L2) was 6.5 µM (inactive). For the same compound, the GI50 (SN12C) was 1.58 µM (inactive), the GI50 (RPMI-8226) was 0.859 µM (active) and the GI50 (KM12) was 3.39 µM (inactive). The GI50 (HCC 2998) was 7.53 µM (inactive), the GI50 (SNB-75) was 5.68 µM (inactive) and the GI50 (SNB-19) was 7.1 µM (inactive). For the same compound, the GI50 (HOP-18) was 9.64 µM (inactive), the GI50 (A549) was 6.34 µM (inactive) and the GI50 (LXFL 529) was 2.66 µM (inactive). For the same compound, the GI50 (OVCAR-8) was 4.38 µM (inactive), the GI50 (DMS-273) was 5.82 µM (inactive) and the GI50 (SNB-78) was 1.14 µM (inactive). The GI50 (UACC-257) was 5.7 µM (inactive), the GI50 (SF-539) was 5.7 µM (inactive) and the GI50 (OVCAR-4) was 5.14 µM (inactive). For the same compound, the GI50 (HOP-92) was 6.22 µM (inactive), the GI50 (NCI-H522) was 0.843 µM (active) and the GI50 (SF-268) was 5.43 µM (inactive). The GI50 (SK-OV-3) was 6.15 µM (inactive), the GI50 (LOX IMVI) was 0.807 µM (active) and the GI50 (HCT-116) was 0.809 µM (active). For the same compound, the GI50 (U-251) was 2.72 µM (inactive), the GI50 (NCI-H23) was 7.82 µM (inactive) and the GI50 (UO-31) was 5.42 µM (inactive). For the same compound, the GI50 (OVCAR-5) was 5.98 µM (inactive), the GI50 (HT-29) was 5.43 µM (inactive) and the GI50 (EKVX) was 7.33 µM (inactive). The GI50 (K562) was 1.44 µM (inactive), the GI50 (COLO 205) was 7.82 µM (inactive) and the GI50 (MOLT-4) was 0.861 µM (active). For the same compound, the GI50 (OVCAR-3) was 2.72 µM (inactive), the GI50 (HCT-15) was 1.56 µM and the GI50 (SK-MEL-2) was 7.4 µM (inactive). The GI50 (TK-10) was 6.58 µM (inactive), the GI50 (RXF 393) was 5.6 µM (inactive) and the GI50 (HOP-62) was 7.87 µM (inactive). For the same compound, the GI50 (SF-295) was 5.83 µM (inactive) and the GI50 (HL-60) was 0.643 µM (active).
